The target in test [1] is T1, AhR (Homo sapiens, UniProt P35869).
T1 construct: expression construct for the full-length human receptor under investigation; expressed in transfected cells; host or cells: human U2-OS cells (ATCC HTB-96), stably transfected
T1 sequence (P35869 11-848): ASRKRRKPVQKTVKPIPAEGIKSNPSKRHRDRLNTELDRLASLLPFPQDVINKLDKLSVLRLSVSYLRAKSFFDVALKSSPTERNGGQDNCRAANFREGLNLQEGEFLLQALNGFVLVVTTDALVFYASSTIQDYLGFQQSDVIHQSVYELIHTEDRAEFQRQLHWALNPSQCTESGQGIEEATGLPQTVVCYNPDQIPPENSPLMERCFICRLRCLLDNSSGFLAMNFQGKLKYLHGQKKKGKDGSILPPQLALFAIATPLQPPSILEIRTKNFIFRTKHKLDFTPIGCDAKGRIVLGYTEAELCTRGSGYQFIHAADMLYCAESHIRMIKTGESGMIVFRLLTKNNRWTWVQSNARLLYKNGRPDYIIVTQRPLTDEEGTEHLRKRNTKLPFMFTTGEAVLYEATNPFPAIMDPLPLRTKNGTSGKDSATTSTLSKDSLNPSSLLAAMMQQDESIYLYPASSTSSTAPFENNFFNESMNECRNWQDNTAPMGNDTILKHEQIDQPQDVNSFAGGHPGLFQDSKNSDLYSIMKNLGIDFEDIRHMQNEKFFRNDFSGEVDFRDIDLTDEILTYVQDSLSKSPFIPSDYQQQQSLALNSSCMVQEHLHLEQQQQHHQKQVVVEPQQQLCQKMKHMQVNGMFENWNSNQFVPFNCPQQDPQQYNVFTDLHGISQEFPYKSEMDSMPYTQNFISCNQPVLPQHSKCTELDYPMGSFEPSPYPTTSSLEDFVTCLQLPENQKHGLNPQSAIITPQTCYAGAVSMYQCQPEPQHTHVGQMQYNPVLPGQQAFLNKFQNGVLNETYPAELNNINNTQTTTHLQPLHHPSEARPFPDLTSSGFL
Put plainly: AhR CALUX reporter gene assay. In kind it is cell-based. The arrangement: key: –: no effect observed up to the highest test concentration. The note with it: PC10, 24 h exposure. The text has this:
2-methylimidazole 99.0%, zinc(II) nitrate hexahydrate ≥99.0%, para-cymene 99.0%, 1,4-dioxane 99.8% (anhydrous), 4-nitroaniline ≥99.0%, 1-octanol ≥99.0%, diglyme ≥99.0%, DMSO-d6 (99.8% D) and chloroform-d (99.8% D) were purchased from Sigma-Aldrich. Toluene ≥99.0%, hexane ≥99.5%, DCM ≥99.5%, chloroform ≥99.5%, DMSO ≥99.0% were purchased from VWR. N,N-diethyl-4-nitroaniline ≥98.0% was purchased from Alfa Aeser. Cyrene was supplied by Circa group. N-butylpyrrolidinone was supplied by Eastman chemicals. N,N-dimethylformamide 99.9% and N,N-dimethylacetamide 99.9% were purchased from Fischer. The flakes of Ultrason® E3020 P Polyarylethersulfone of 55,000 Da were obtained from INGE.BASF, Germany. The CALUX cell lines have been described previously.[1] They are based on human U2-OS cells (ATCC, HTB-96) stably transfected with an expression construct for the full-length human receptor under investigation, and a reporter construct consisting of multimerized responsive elements for the cognate receptor coupled to a minimal promoter element (TATA) and a luciferase gene. Cells were maintained as described previously,[2] using cell culture media and supplements from Fisher Scientific as described in the experimental procedures section. […]
(§1) In vitro reporter gene assays
(§2) The automated CALUX assays were carried out similarly as described earlier,[12] with some adaptations. In brief, the assay was performed in CO2 independent medium (Fisher Scientific, […]
(§3) supplement (Fisher Scientific, 11574466), 10 U/mL penicillin and 10 µg/mL streptomycin. A cell suspension in assay medium was made of 1 × 10^5cells/mL, and white 384-wells plates were seeded with 30 µl cell suspension/well. After 24 h, exposure medium was prepared. A dilution series in 0.5log unit increments of each test compound (in DMSO) was added to a 96-wells plate containing assay medium (2% v/v). Of this exposure mixture, 30 µl was added to the assay plates containing the CALUX cells, resulting in a final DMSO concentration of 1%. Additionally, DMSO blanks and a full dose response curve of the relevant reference compound were included on each plate. All samples were tested in triplicate. The preparation of the compound dilution series as well as the exposure of the cells were performed on a Hamilton StarLET liquid handling robot coupled to a Cytomat incubator.
(§4) Directly after exposure, plates were sealed with non-breathing plate seals (Plate sealer, easy seal transparent; Greiner-Bio-One, 676001). After 24 h the exposure medium was removed using an EL406 washer-dispenser (BioTek) and 10 µl/well triton lysisbuffer was added by the EL406.
Subsequently, the luciferase signal was measured in a luminometer (InfinitePro coupled to a Connect Stacker, both TECAN). In order to be able to detect receptor antagonism, several assays were also performed in antagonistic mode. […]
The luminometer data was analysed as follows; the average of the triplicate wells was determined, and the average blank (DMSO) value was subtracted. […] For antagonist- and cytotoxicity experiments, PC20 values were determined instead, which was defined as the concentration where the test compound causes a 20% decrease in the basal signal, which was […]
(§5) curve, the signal induction above background (DMSO) was determined, and the concentration where the compound elicited a 1.5-fold increase above background was used as LEC.
Background: In a reporter assay the amount or activity of a reporter protein is the signal.

The test system of test [2] is Nrf2. Put plainly: Nrf2 CALUX assay (oxidative stress). It is filed as cell-based, human. The arrangement: key: –: no effect observed up to the highest test concentration. To be noted: cell signaling pathway assay, 24 h exposure.
Source text: Six of the CALUX assays (TCF through p53) detect activation of several cellular signaling pathways, which are indicative of general stress and acute toxicity, but also a range of more specific types of toxicity, including reproductive toxicity. […]
DCM ≥99.5%, chloroform ≥99.5%, DMSO ≥99.0% were purchased from VWR. […]
Polyarylethersulfone of 55,000 Da were obtained from INGE.BASF, Germany. The CALUX cell lines have been described previously.[1] They are based on human U2-OS cells (ATCC, HTB-96) stably transfected with an expression construct for the full-length human receptor under investigation, and a reporter construct consisting of multimerized responsive elements for the cognate receptor coupled to a minimal promoter element (TATA) and a luciferase gene. Cells were maintained as described previously,[2] using cell culture media and supplements from Fisher Scientific as described in the experimental procedures section. […]
as §1, §2, §3, §4
Subsequently, the luciferase signal was measured in a luminometer (InfinitePro coupled to a Connect Stacker, both TECAN). In order to be able to detect receptor antagonism, several assays were also performed in antagonistic mode. The assay procedure was as described above, with the only exception that the EC50 concentration of the reference agonist was present during the exposure.
The luminometer data was analysed as follows; the average of the triplicate wells was determined, and the average blank (DMSO) value was subtracted. For receptor-based assays the maximum response elicited by the reference compound was set to 100% (full receptor- or pathway activation), and the other values were scaled accordingly. GraphPad Prism was used to fit a sigmoidal curve through the data (four parameters, variable slope). […] For antagonist- and cytotoxicity experiments, PC20 values were determined instead, which was defined as the concentration where the test compound causes a 20% decrease in the basal signal, which was […]
as §5

Turning to `CCCCN(CC)C(=O)CCC(=O)N(CC)CCCC` [EBSA, N,N′‐diethyl‐N,N′‐dibutylsuccindiamide], the “LEC AhR” value in test [1] was “–”. Moreover, the “LEC Nrf2” value in test [2] is given as “–”.
`CCCCN(CCCC)C(=O)CCC(=O)N(CCCC)CCCC` [TBSA, N,N,N′,N′‐tetrabutylsuccindiamide]: the “LEC AhR” value in test [1] is “–”. In test [2], the “LEC Nrf2” value is “–”.
For `CCCCN(C)C(=O)CCC(=O)N(C)CCCC` [MBSA, N,N′‐dimethyl‐N,N′‐dibutylsuccindiamide], the “LEC AhR” value in test [1] is recorded as “–”. Moreover, the “LEC Nrf2” value in test [2] is −2.9 Log M.
In the same order, the values of `CCCCN1CCCC1=O` [NBP, N‐Butylpyrrolidinone, reference compound] are “–” and “–”.
The corresponding values for `CN1CCCC1=O` [NMP, N‐methyl‐2‐pyrrolidone, reference compound] are −2.0 Log M and “–”.

These data come from article PMC7318222, “A Family of Water‐Immiscible, Dipolar Aprotic, Diamide Solvents from Succinic Acid” (Chemsuschem, 2020).
